The text below walks through data of patent US10813931B2, “Methods and compositions relating to the treatment of cancer” (THE BRIGHAM AND WOMEN'S HOSPITAL, INC., priority 2013, dated 2020).

SMILES strings stand for the structures.

Test [1] concerns MDA-MB-468 (468) cell line. The test can be described thus: CD44/CD24 surface expression by FACS in 468 cells. It is filed as cell-based, human. The protocol: (§1) MDA-MB-231, MDA-MB-468 were purchased from ATCC. For acute treatments, cells were plated at a density of 0.5-1×10^5 cells/ml and allowed to adhere for 24-48 hr. when cells reached ˜70% confluency they were treated with antitubulins at indicated concentrations for 4-24 hours and utilized for subsequent assays. To generate chemotherapy tolerant subset, cells were treated with indicated concentrations of chemotherapy (48). Following washes with PBS, adherent cells were trypsinized and re-plated at a density of 1.5-2×10^5 cells/ml and cultured in serum-containing medium. […]
(§2) Cells were cultured as indicated and fixed with 4% paraformaldehyde in PBS for 30 min at RT and blocked in 10% goat serum (v/v). Following PBS washes, cells were incubated with indicated antibodies for 60 minutes at room temperature or overnight at 4 C and analyzed by FACS (Accuri cyomteters Inc. Ann Arbor, Mich.). Cell cycle analyzed in propidium iodide solution following incubation in 70% Ethanol overnight at 4 C and following manufacturer protocol (Genscript USA Inc. Piscataway, N.J.). AnnexinV/PI was analyzed FACS following manufacturer protocol (BD, Ann Arbor Mich.). All FACS results were analyzed by FlowJo™ software following a rigorous doublet discrimination based on FSC:A vs. width as well as FSC:A vs. height (Tree Star Inc., Ashland Oreg.). […]
Background: Flow cytometry measures light scatter and fluorescence of single cells or particles in a stream.

The test system of test [2] is MDA-MB-231 (231). Put plainly: CD44 surface expression by FACS in 231 cells. It is filed as cell-based, human. Particulars: 4 hours post treatment, increasing doses. The protocol: as §1, §2
The test system of test [3] is 4T-1 mouse mammary carcinoma. The test can be described thus: 4T-1 tumor growth in Balb/C mice. It is filed as in vivo. The protocol:
(§3) 4-6 week old Balb/C mice (Charles River, Cambridge Mass.) were inoculated with 10^6 4 T-1 mouse mammary carcinoma cells in the left flank (Charles River, Cambridge Mass.). Mice identified with tumors were treated with docetaxel (DTX) or vehicle twice at 72 hour intervals at 10 mg/kg i.v. or 15 mg/kg i.p. and subsequently treated with dasatinib i.p. or nanoparticles i.v. 72 hours following the final DTX dose. Tumors were harvested at indicated time points and evaluated for protein phosphorylation and expression. Experimental detail provided in supplemental data.
(§4) 1 million 4T-1 mouse mammary carcinoma cells suspended in 100 µL PBS were injected per left flank of 5-6 week old Balb/C (Charles River, Wilmington Mass.). DTX was dissolved in pure Ethanol at a concentration of 50 mg/ml mixed 1:1 with Polysorbate 80 (Tween 80) and brought to a final working concentration with 5% glucose in PBS. Once Tumors became palpable (˜100 mm^3), DTX or vehicle treatments were administered at 100 μL volumes. Dasatinib was dissolved in DMSO to working concentration and delivered as 50 μL injections on indicated days, 50 µL DMSO used as a control in these studies. Tumor volumes were measured by a third party unaware of treatment conditions using digital calipers (Starlett, Athol, Mass.), volumes were assessed by the following formula: (Width×Width×length)/2 and expressed as relative volume increase from day 1. Tumor homogenate was prepared by homogenization of equal weight tissue sections incubated in 3×RIPA buffer containing 2× protease/phosphatase inhibitor cocktail (Thermo Fisher, Waltham, Mass.).

The test system of test [4] is CD44, Src (Y527), PRAS40 T246, Hck. The test can be described thus: 4T-1 tumor tissue western blot / IHC of CD44 and kinase phosphorylation. It is filed as in vivo, mouse. Particulars: diminished by day 19. The protocol:
as §3, §4
Cells were generated as described above and plated in 4 chamber glass slides (BD Biosciences, San Jose Calif.) at a concentration of 100,000 cells/ml. Following treatments, cells were washed in PBS and fixed in 4% Paraformaldehyde for 30 minutes. […] Blocking was performed in 10% (v/v) Goat serum in PBS. The cells were labeled with the indicated primary antibodies at 1:100 and tagged with FITC or unconjugated followed by a secondary antibody conjugated with Alexa Fluor 488 or Alexa Fluor 594 (Invitrogen Carlsbad Calif.) at 1:250 were added 24 hours later and incubated for 90 minutes at room temperature in blocking buffer and masked with DAPI-containing hard-set mounting medium (Vector Laboratories, Burlingame Calif.). Bright field and fluorescent images were obtained using three channels on a NIKON Eclipse TI-U microscope with a 20×ELDW, 10× or 40× Plan-Apo objective lens (Nikon, Melville N.Y.). […] For histological quantification, IHC were scored blindly by a clinical pathologist based on number of cells which stain for the target protein (1-4) and multiplied by the intensity of staining as a subjective percentile. This value was expressed as IHC score to quantify the level of staining. […]
Background: In western blotting, separated proteins are transferred to a membrane and probed.

As for `CC(=O)O[C@@]12CO[C@@H]1C[C@H](O)[C@@]1(C)C(=O)[C@H](O)C3=C(C)[C@@H](OC(=O)[C@H](O)[C@@H](NC(=O)OC(C)(C)C)c4ccccc4)C[C@@](O)([C@@H](OC(=O)c4ccccc4)[C@H]21)C3(C)C` [DTX, docetaxel], the CD44/CD24 signature result in test [1] (10 nM docetaxel, 24 h) is recorded as “induced a CD44^HI, CD24^+/HI signature”. In test [1] (24 hour incubation, 10 nM DTX), the CD44 surface expression result is “induction of CD44 was observed”. Moreover, the CD44 induction entry in test [2] was “dose-dependent manner”. In addition, in test [3] (DTX days 2 and 5, day 19), the “tumor re-emergence after treatment” value is listed as “re-emerged robustly by day 19”. Moreover, in test [3] (DTX days 2 and 5 at 10 mg/kg i.v. and 15 mg/kg i.p., vs vehicle), the “tumor growth (relative tumor volume)” value is “inhibited tumor growth”. Further, in test [4] (DTX day 9 vs control), the “Hck phosphorylation in tumor (IHC)” value is recorded as “markedly enhanced”, the “activated PRAS40 T246 in tumor” value is “enhancement” and the “inhibitory residue of Src (Y527) phosphorylation in tumor” value is “Reduction”. In test [4] (DTX-treated day 9 vs control day 9), the “CD44 expression in tumor tissue” value is recorded as “significantly enhanced CD44 expression”.
